Patent US10532028B2, “Method to improve characteristics of spray dried powders and granulated materials, and the products thereby produced” (ISP INVESTMENTS LLC, priority 2005, dated 2020)

Assays:
[1] = CoQ10 USP dissolution, apparatus II (paddles); assay type: physicochemical; conditions: 37° C.
Source text: • 1. Coenzyme Q10 (CoQ10) was spray dried with polyvinylpyrrolidone (PVP) (Plasdone® K-29/32, International Specialty Products) in the ratio 1 CoQ10:3 PVP at 20% total solids. Two spray dried powders were produced, one from 100% dichloromethane (DCM) and the other from a blend of 80% DCM, 20% acetone. CoQ10 is soluble in both DCM and acetone, while PVP is only soluble in DCM. All other spray drying conditions remained the same. • 2. Sample analysis included USP dissolution using apparatus II (paddles). All samples were hand-filled into size 1 gelatin capsules. The bath temperature was 37° C. with a paddle speed of 50 rpm for the first 60 minutes and then 200 rpm for an additional 15 minutes. The dissolution media contained 2% Cremophor® EL (BASF Corp.), and 4% Acconon® MC8 (Abitec Corp.). […] It is surprising that the time for 50% CoQ10 dissolution (t50%) was shortened from 18 minutes (100% solvent) to 5 minutes (solvent/non-solvent blend). Similarly, the time for 80% CoQ10 dissolution (t80%) was shortened from 68 minutes to 12 minutes by the switch from 100% solvent to the solvent/non-solvent blend. • 4. […] Other advantages of the solvent/non-solvent blend approach include lower residual solvent content and higher density.

[2] = Crystallinity by (modulated) differential scanning calorimetry; assay type: physicochemical; conditions: MDSC, heat-only conditions, aluminum hermetic pans
Procedure: • 1. 1 part Carbamazepine (CBZ) was spray dried with 1 part polyvinylpyrrolidone (PVP) (Plasdone® K-29/32, International Specialty Products) and 1 part polyvinylpyrrolidone-co-vinyl acetate (PVP-VA) (Plasdone® S-630, International Specialty Products) from solvent and solvent/non-solvent solutions at 10% solids by weight. Solvent was dichloromethane (20%), non-solvent was acetone (80%). • 2. Spray drying was conducted on an SD-Micro® (Niro, Inc.) spray dryer under identical experimental conditions other than solvent composition. • 3. Results: • a. […] CBZ from solvent/non-solvent solution • 1) Particle morphology: spherical as shown in FIG. 2B. • 2) Particle size (from optical microscopy): 3 μm-5 μm • 3) Residual solvent immediately after spray drying: 2.0% • 4) Bulk density: 0.057 g/mL • 5) Density after 1250 taps: 0.18 g/mL • 6) Spherical morphology was unexpected, based on previous examples, expected particles to be dimpled, raisin-like, or folded.
• The two solutions were spray dried under identical conditions on an SD-Micro® (Niro, Inc.) spray dryer to yield spray dried powders. • 2. The two compositions were analyzed for EFV crystallinity using differential scanning calorimetry. Both powders were amorphous, as indicated by the absence of an EFV melt endotherm (FIG. 5). • 3. […]

[3] = Table 1, 75 minutes test, 2% Cremophor EL + 4% Acconon MC8

COC1=C(OC)C(=O)C(C/C=C(\C)CC/C=C(\C)CC/C=C(\C)CC/C=C(\C)CC/C=C(\C)CC/C=C(\C)CC/C=C(\C)CC/C=C(\C)CC/C=C(\C)CCC=C(C)C)=C(C)C1=O [CoQ10 (as received), Coenzyme Q10]
max. CoQ10 release ([1]; 50 rpm for 60 min then 200 rpm for 15 min, 2% Cremophor EL + 4% Acconon MC8, size 1 gelatin capsules): 4.3%
T80% (time for 80% CoQ10 dissolution) [1, 3]: not attained
t50% (time for 50% CoQ10 dissolution) [1, 3]: not attained
crystallinity [2]: 100%
